Several values for one entry are separate records, joined by “and”; a condition that tells them apart may be missing. Equal values may be shown once. Entries after “also recorded” stand apart in the source; their conditions may differ. Read-outs that look alike come from different tables or passages of the source.
Tests used:
[1] = Table 1; K=[ML]/[M][L]; cited from earlier work
[2] = Table 1; K=[ML]/[M][L]; cited from earlier work; remark: listed apart in the source
[3] = Table 1; K=[ML]/[M][L]; cited from earlier work; remark: listed apart in the source
[4] = test system: Aβ1-40 or Aβ1-42 SDS-resistant polymers; experiment: Dissolution of in vitro Cu^2+-induced SDS-resistant Aβ polymers; assay type: biochemical, human; details: polymers generated at pH 7.4
[5] = Table 1; K=[ML]/[M][L]; cited from earlier work; remark: listed apart in the source
[6] = Table 1; K=[ML]/[M][L]; cited from earlier work; remark: listed apart in the source
[7] = Table 1; K=[ML]/[M][L]; cited from earlier work; remark: listed apart in the source
[8] = Table 1; K=[ML]/[M][L]; cited from earlier work; remark: listed apart in the source
[9] = sustained treatment, dose as low as 10 mg/kg/day; cited from earlier work
[10] = in vivo, cited from earlier work
[11] = test system: Aβ deposits of AD-affected brain; experiment: Extraction (solubilization) of Aβ from post-mortem AD brain tissue homogenates, western blot densitometry; assay type: biochemical, human
[12] = oral dose of 200 mg/kg, dogs; cited from earlier work
[13] = Clioquinol in humans: expected plasma levels and side effect; assay type: in vivo
[14] = cited from earlier work
[15] = with PBS at 1:1 mixture; assumption; cited from earlier work
[16] = oral dose of 200 mg/kg, rats; cited from earlier work
Aβ1-40 aggregates = target: T1, Aβ1-40 aggregates (Homo sapiens, UniProt P05067); experiment: Resolubilization of in vitro metal- or pH-induced Aβ aggregates on filter; assay type: biochemical; details: chelator 2 μM in TBS
T1 construct: formed in vitro by the action of Cu^2+ or Zn^2+ upon Aβ1-40 was examined; purchased W. M. Keck Foundation Biotechnology Resource Laboratory (Yale University); host or cells: chemical synthesis
Procedure: Aggregates were transferred to a 0.2 μ nylon membrane by filtration. […] The membrane was fixed, probed with the anti-Aβ monoclonal antibody 6E10, and developed for exposure to ECL-film. […] Values are expressed as a percentage of Aβ signal after washing with TBS alone.
Aβ (10 ng/well in buffered saline) aggregation was induced by addition of metals (5 μM) or acidic conditions (pH 5.5). Aggregates were transferred to a 0.2 μ nylon membrane by filtration. […] The membrane was then fixed, probed with anti-Aβ monoclonal antibody 6E10 and developed for exposure to ECL-film. […] Values are expressed as a % of Aβ signal remaining on the filter after washing with TBS alone.

[17] = cited from earlier work; remark: listed apart in the source
[18] = Dissolving clioquinol: n-decane / PBS partition; assay type: physicochemical
Procedure: Next, the phases were allowed to separate. The lower phase (PBS) was collected and filtered to remove the residue which had formed at the phase interface upon extraction with the organic solvent. The concentration of clioquinol in the PBS was determined to be 800 nanomolar. This number was arrived at based on two assumptions: […]

[19] = oral dose of 500 mg/kg, monkeys; cited from earlier work
brain-derived Aβ = experiment: Effect of added metals on solubility of brain-derived Aβ; assay type: biochemical, human; details: 2 mM in PBS
Procedure: Aβ in the high speed supernatant was visualized as described above.
The homogenates were spun at 100,000× g for 30 min and the supernatant discarded. […] Aβ in the soluble fraction was visualized as described above.

T1 sequence (P05067 672-711 limits assumed): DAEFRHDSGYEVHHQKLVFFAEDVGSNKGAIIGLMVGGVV

## O=C(O)CN(CCN(CC(=O)O)CC(=O)O)CC(=O)O [EDTA, ethylenediaminetetra acetic acid]
[1]
  LogK, Zn: 16.5
[2]
  LogK, Mg: 8.9
[3]
  LogK, Ca: 10.7
[4]
  effect of chelators on amount of SDS-resistant polymers: less effective in destabilizing the polymers
[5]
  LogK, Al: 16.5
[6]
  LogK, Co: 16.5
[7]
  LogK, Fe: 14.3
[8]
  LogK, Cu: 18.8

## Oc1c(I)cc(Cl)c2cccnc12 [clioquinol, 5-chloro-7-iodo-8-hydroxyquinoline]
[9]
  neurological side effect: subacute myclo-optic neuritis
[10]
  brain / blood-brain barrier penetration: freely permeable into the brain
[10]; listed as Clioquinol
  brain / blood-brain barrier penetration: crosses the blood brain barrier
[11]
  % of total Aβ extracted: 1.85% and 4.5% and 3.4%
  % of total Aβ extracted, + PBS: 0.11% and 2.7% and 1.1%
  Aβ recovered in the soluble phase compared to PBS alone: doubling the recovery of Aβ; also recorded: more than twice
  increase in solubilization of Aβ relative to PBS alone: 2.5 fold
[12]
  plasma levels: 10 to 30 µM
[13]; 100 mg, three or four times a day
  peak plasma levels: about 0.1 μM
[13]; humans, within 30 minutes of ingesting 10 mg/kg body weight
  expected plasma level: 0.5 µM
[14]; in vivo
  removal of a bolus dose from the brain: almost completely removed from the brain within three hours
[14]; many mammalian species, including rat and mouse
  safety: appears to be safe
[14]; within one hour of ingestion, rats and mice
  blood levels: 1 to 10 µM
[15]
  partitioning coefficient: 1/1750
[16]
  plasma levels: 5 µM
Aβ1-40 aggregates
  Cu^2+-induced Aβ precipitate resolubilized: 85%
  Zn^2+-induced Aβ precipitate resolubilized: 50%
  pH 5.5-induced Aβ precipitate resolubilized: 10%
[17]; in vivo
  excretion half life: 1 to 3 h
[17]; oral ingestion
  time to peak plasma levels: ≤ 30 min
[18]; 5.3 grams in 200 milliliter of n-decane
  proportion dissolved in n-decane: 2%
[18]; PBS, pH 7.4, based on two assumptions
  concentration in PBS after partition from n-decane: 0.8 µM
[19]
  plasma levels: 20 to 70 µM

## [Mg] [magnesium]
brain-derived Aβ
  resolubilization of Aβ in tissue depleted of metals by EGTA: led to resolubilization of the precipitated Aβ
